Structure (SMILES) | melting point
CCOC(=O)COc1ccc(OCC)cc1C(Nc1ccc(C(=N)NC(=O)OC(C)(C)C)cc1)C(=O)OCC (racemic) | 241 °C
CN1CC[C@@H](c2c(O)cc(O)c3c(=O)cc(-c4ccccc4Br)oc23)[C@@H]1CO | 235 to 237 °C
N#Cc1ccccc1C=CCN1CCc2nc(N)sc2CC1 | 140 to 144 °C
CCOP(=O)(OCC)OC(=Cc1nccn1C)c1ccccc1 | 111 to 114 °C
O=Cc1c[nH]c2cc(F)c(OCc3ccccc3)cc12 | 190 °C
N#CC(=Cc1cc2ccccc2c2ccccc12)c1ccncc1 | 206 to 208 °C
CC(=NNC(N)=O)c1ccc(NS(C)(=O)=O)c(Oc2ccc(F)cc2F)c1 | 187 to 189 °C
Nc1nc(F)cc(OC(F)(F)F)n1 | 86 to 89 °C
CC(NC(=S)NCc1ccc(C(C)(C)C)cc1)c1ccc(NS(C)(=O)=O)cc1 (stereo unspecified) | 101 °C
CCOC(=O)C1=C(C(=O)OCC)C(c2ccccc2[N+](=O)[O-])C(C(=O)OCC)=C(C(=O)OCC)N1 | 109 °C
O=C(O)c1ccc2c(c1)oc(=O)c1cc(C(=O)O)ccc12 | > 300 °C
COCCNc1ccc(CN2CCN(C(c3ccccc3)c3ccccc3)CC2)cc1[N+](=O)[O-] | 97.2 °C
C(=C(c1ccccc1)c1ccccc1)C1CCN(CCCCCCCCCCc2cccnc2)CC1 | 63 to 65 °C
CC(CSc1nn(-c2ccccc2)c2c1CCC2)C(=O)O (stereo unspecified) | 84 to 85 °C
O=C(c1cccs1)c1cccn1N1C(=O)c2ccccc2C1=O | 165 to 166 °C
Cc1cc(N)cnc1Oc1cccc(C(C)(C)C)c1 | 83 to 84 °C
CCCC1NS(=O)(=O)N(CCl)C1=O (stereo unspecified) | 62 to 63.5 °C
NC1Cc2cccc3[nH]c(=O)n(c23)C1 (stereo unspecified) | > 300 °C
CCCCc1ccc(C(=O)NCCCCCCO)cc1 | 80 to 81 °C
OC1(C#Cc2ccc(OCCOc3ccccc3)cc2)CN2CCC1CC2 (stereo unspecified) | 207 to 208 °C
Cc1ccccc1-c1cccc(Nc2ccccc2)c1C#N | 125 to 126 °C
CC1C(=O)NC(=O)N(Cc2ccccc2)C1=O (stereo unspecified) | 128 to 129 °C
CN1CC2(c3cccc(O)c3)CCCC1C2 (stereo unspecified) | 144 to 146 °C
CC(=O)OC(C)(C)C(=O)Nc1c(C(=O)c2cc(C)ccn2)[nH]c2cc(Cl)ccc12 | 222 to 223 °C

Structure (SMILES) | melting point
Cc1cc(C)c(Nc2nc(C)nc(OC3CCOC3)c2C)c(C)c1 (stereo unspecified) | 126 to 128 °C
CO/C(=C\C=C\c1cc2cc(C(F)(F)F)ccc2[nH]1)C(=O)O | 191 to 193 °C
Cc1cc(=O)n(-c2cc(C(=O)OC(C)C)c(Cl)cc2F)c(=O)n1C(F)F | 90 to 93 °C
Cc1nc(Oc2ccc(F)cc2)cc(Oc2ccc(F)cc2)n1 | 93 to 97 °C
CC(=O)OC1C(COC(=O)c2ccccc2)OC(n2cc(F)c(=O)[nH]c2=O)C1F (stereo unspecified) | 177 to 179 °C
COc1cc(C=C2C(=O)CCc3cc(Cl)ccc32)c([N+](=O)[O-])cc1OC | 56 to 58 °C
COc1cc(F)ccc1CCN1c2nc(-c3ccncn3)cc(=O)n2CCC1(C)C | 196 to 198 °C
CCOC(=O)Cc1cnc(C(C)(C)C)nc1Cl | 42 to 44 °C
O=c1c2cnn(CC3CO3)c2ncn1CC1CO1 (stereo unspecified) | 90 to 95 °C
Cc1cc(C)nc(N(C(=O)Cl)c2cc(Cl)ccc2Cl)n1 | 121 to 123 °C
CCOC(=O)c1nc2cc(Br)c(Cl)cc2[nH]c1=O | 203 to 205 °C
CN(C)C(=O)Oc1ccc(C[C@H](NC(=O)Nc2ccccc2S(=O)(=O)c2ccccc2)C(=O)O)cc1 | 115 °C
CCCCOCCOc1ccc(-c2ccc3c(c2)C=C(C(=O)Nc2ccc([C@@H](O)c4ccccn4)cc2)CCN3C=O)cc1 | 110 to 112 °C
CC(=O)NC[C@H]1CN(c2ccc(N3CCC(n4nccn4)CC3)c(F)c2)C(=O)O1 | 197 °C
Oc1c(Br)cc(Br)c2c(Cl)ncnc12 | 198 to 199 °C
O=C(c1ccc(Cl)cc1)c1ccc(CS(=O)(=O)C(F)F)cc1 | 154 to 157 °C
CN(C)C(=O)c1cc(OCc2ccccc2)c2nc(C(F)(F)F)n(C)c2c1 | 144 to 146 °C
O=C(O)Cc1cc(Br)cc(Br)c1OCCc1ccccc1 | 81 to 84 °C
O=C1N(C/C=C/c2ccccc2[N+](=O)[O-])CCN1c1ccncc1 | 205 to 206 °C
Cc1ccc(C(=O)c2noc(CC(=O)O)n2)cc1 | 140 to 141 °C
O=C(O)C1C=Nc2c(cccc2[N+](=O)[O-])C1=O (stereo unspecified) | 263 to 265 °C
Fc1ccc(CNc2ccc(-n3nc(C(F)(F)F)cc3C(F)(F)F)cc2)cc1 | 92 to 94 °C
CCCCC(=O)OC1C=CC(OC(=O)CCCC)O1 (stereo unspecified) | 30 to 35 °C
O=C(NC1CCOCC1)c1ccc(-c2cc(-c3c(-c4ccccn4)nc4ccccn34)ccn2)cc1 | 179 °C

Structure (SMILES) | melting point
CCCc1nc2c(N)nc3cc(OCCOCCOc4ccc5c(c4)nc(N)c4nc(CCC)sc45)ccc3c2s1 | 186 to 189 °C
CC(C)C(NS(=O)(=O)c1ccc(Cl)s1)c1cccn1Cc1ccccc1 (stereo unspecified) | 102 to 103 °C
FC(F)(F)c1cccc(N2CCN(CCCCNc3cc(-c4ccccc4)ccn3)CC2)c1 | 120 °C
Cc1cccc(Cl)c1NC(=O)Nc1cc(NC(C)C)ncn1 | 233 °C
Cc1ccc(C)c(OCCCC(C)(C)C(=O)Nc2cccc(C(=O)O)c2)c1 | 161 °C
CNCc1ccc(Cc2nc3ccccc3[nH]2)cc1 | 157 to 160 °C
CC(C)(C)c1ccc(CCNc2ncnc3ccncc23)cc1 | 157 to 158 °C
CCOC(=O)c1c(CO)c(C)n(C)c1C | 184 to 186 °C
COc1cc(N)c(Br)cc1C(=O)NC1CCN(CC2CCN(C(N)=O)CC2)CC1 | 228 to 230 °C
CCn1c(COc2ccc(CC3SC(=O)NC3=O)cc2)nc2cccnc21 (stereo unspecified) | 210 to 212 °C
CCOC(=O)C(Cc1cccc2ccccc12)(Cc1cccc2ccccc12)C(=O)OCC | 79 to 81 °C
CCCn1nc2c(N)nc3ccccc3c2c1CCCCS(=O)(=O)N(C)C | 144 to 146 °C
O=[N+]([O-])c1ccc(CSc2ncnc3nc[nH]c23)cc1 | 239 °C
CCN(CCCCC12CC3CC(CC(C3)C1)C2)C(=O)NCCCc1ccncc1 | 92.7 to 93.7 °C
Cc1onc(OC2CN3CCC2CC3)c1Cl (stereo unspecified) | 37 to 38 °C
Nc1cc(Oc2ccc3c(C(=O)Nc4ccc(F)c(C5CC5)c4)cccc3c2)ncn1 | 256 to 257 °C
CNC(=C[N+](=O)[O-])NCCCCc1ccc(CN(C)C)s1 | 104 to 106 °C
NS(=O)(=O)c1ccc(-n2nc(CCCNC(=O)Nc3ccc(OC(F)(F)F)cc3)cc2-c2ccccc2)cc1 | 206 to 207 °C
O=C(Cl)Cc1ccccc1NS(=O)(=O)C(F)(F)F | 94 to 95 °C
Cc1ccc(-c2nc3sc4ccccc4n3c2CC(=O)O)s1 | 255 to 259 °C
O=C1Nc2ccccc2N(C(=O)N2CCCC(CCN3CCCCC3)C2)c2ncccc21 (stereo unspecified) | 168 to 169 °C
FC(F)(F)Sc1ccc(-c2ccc(Cl)cc2)[nH]1 | 34 to 39 °C
O=C1c2ccccc2CN1[C@@H]1c2cc([N+](=O)[O-])ccc2OC(CF)(CF)[C@H]1O (relative stereo) | 285 to 288 °C
